# Experimental data from patent US5260271A, “Nisin compositions for use as enhanced broad range bactericides” (Applied Microbiology, Inc., priority 1992, dated 1993).
# Tests used:
# S. typhimurium = experiment: Bactericidal activity, percent bacterial survival of S. typhimurium suspension; type: cell-based, Salmonella typhimurium; details: for % Survival at 2 hours: S. typhimurium
# Experimental: (§1) All tests in the following examples were performed at 37° C. The efficacy of the enhanced broad range bactericides was determined by assaying bactericidal activity as measured by the percent bacterial survival after treatment with the bactericide. Generally, after incubation of a 10^7 cell per ml suspension of target species with the novel bactericide for specified lengths of time, bacteria were collected by centrifugation for 2 minutes. […] Surviving bacteria were determined by scoring colony forming units (CFU) after incubation for 24-48 hours at 37° C.
# The control (Test #1) is identical to the control of Example 1 (Table 1).
# E. coli = experiment: Bactericidal activity, percent bacterial survival of E. coli suspension; type: cell-based, Escherichia coli; details: for Percentage E. coli Survival at 2 hours: 20 mM Tris pH 8.0
# Experimental: as §1
# The effects of the bactericide were measured as a function of percentage bacteria survival after 2 hours.
# Incubations were performed in 20 mM Tris, […] at 37° C.
# K. pneumoniae = experiment: Bactericidal activity, percent bacterial survival of K. pneumoniae suspension; type: cell-based, Klebsiella pneumoniae; details: Nisin 0, EDTA 20 mM, 20 mM Tris pH 8.0
# Experimental: as §1
# The effect was measured as a function of percentage bacterial survival after 2 hours.
# [1] = test system: S. typhimurium on chicken muscle; experiment: Bactericidal activity towards S. typhimurium on chicken muscle (unadhered cells); type: cell-based, Salmonella typhimurium
# Experimental: Incubations were performed in either 50 mM sodium acetate, pH 5.0, or 20 mM Tris, pH 8.0 at 37° C.
# Cubes of chicken muscle were cleansed with sodium hypochlorite and povidone iodine prior to use. To inoculate the tissue, the cubes of chicken muscle were dipped into a 10^8 cells/ml suspension of S. typhimurium in 20 mM Tris HCl, pH 8.0. Excess moisture was removed from dipped cubes by tapping. The chicken samples were placed into sufficient buffer containing the nisin composition to cover the tissue and incubated for 2 hours at 37° C. after which the tissue was removed to sufficient Phage buffer to cover the tissue. The bacteria remaining in the test solution were collected by centrifugation, washed with Phage buffer, and combined with bacteria washed from the tissue by Phage buffer. The combined samples (termed "unadhered" cells) were serially diluted and 100 μl aliquots were plated for determination of surviving bacteria.
# (§2) Cubes of chicken muscle were cleansed with sodium hypochlorite and povidone iodine prior to use. To inoculate the tissue, the cubes of chicken muscle were dipped into a 10^8 cells/ml suspension of S. typhimurium in 20 mM Tris HCl, pH 8.0. Excess moisture was removed from dipped cubes by tapping. The tissue was placed into sufficient buffer containing the nisin compositions to cover the tissue, and incubated for 2 hours at 37° C. after which the tissue was removed to sufficient Phage buffer to cover the tissue. The bacteria remaining in the test solution were collected by centrifugation, washed with Phage buffer, and combined with bacteria washed from the tissue by Phage buffer. The combined samples (termed "unadhered" cells) were serially diluted and 100 μl aliquots were plated for determination of surviving bacteria.
# as §2, with “cleaned” for “cleansed”, “50” for “20”, “sodium acetate buffer,” for “Tris HCl,”, “5.0.” for “8.0.”, “containing” for “containing the”
# Staphylococcus aureus = experiment: Bactericidal activity towards Staphylococcus aureus, percent survival; type: cell-based; details: S. aureus
# Experimental: (§3) All tests in the following examples were performed at 37° C. The efficacy of the enhanced broad range bactericides was determined by assaying bactericidal activity as measured by the percent bacterial survival after treatment with the bactericide. Generally, after incubation of a 10^7 cell per ml suspension of target species with the novel bactericide for specified lengths of time, bacteria were collected by centrifugation for 2 minutes. […] Surviving bacteria were determined by scoring colony forming units (CFU) after incubation for 24-48 hours at 37° C. An effective bactericide according to this invention is one which allows less than 0.1% of the initial viable count of the bacteria to survive.
# Incubations were performed in 50 mM sodium acetate buffer, pH 5.0 or 20 m
# TrisHCl buffer, pH 8.0 at 37° C.
# Streptococcus mutans = experiment: Bactericidal activity and kinetics towards Streptococcus mutans in Tris buffer; type: cell-based; details: S. mutans, Nisin 0 with 1.0 mM EDTA, pH 7.3
# Experimental: All tests in the following examples were performed at 37° C. The efficacy of the enhanced broad range bactericides was determined by assaying bactericidal activity as measured by the percent bacterial survival after treatment with the bactericide. Generally, after incubation of a 10^7 cell per ml suspension of target species with the novel bactericide for specified lengths of time, bacteria were collected by centrifugation for 2 minutes. The bacterial pellet was washed free of the bactericide with a rescue buffer, termed herein Phage buffer (50mM Tris-HCl buffer pH 7.8, 1 mM MgSO4, 4 mM CaCl2, 0.1 M Nacl, and 0.1% gelatin), resuspended and serially diluted into Phage buffer, and 100 μl of the suspended bacteria were spread on nutrient agar plates. Surviving bacteria were determined by scoring colony forming units (CFU) after incubation for 24-48 hours at 37° C.
# The suspensions were incubated for various times ranging from 0.5 to 60 minutes with the bactericides.
# Incubations were performed in 20 mM TrisHCl, pH 7.3 at 37° C.
# Listeria monocytogenes [2] = experiment: Bactericidal activity towards Listeria monocytogenes in Tris buffer; type: cell-based; details: L. monocytogenes; pH 8.0, Nisin 0, EDTA 1.0 mM
# Experimental: as §3
# (§4) Incubations were performed in 20 mM TrisHCl, pH 8.0 at 37° C.
# Coryneform bacteria = experiment: Bactericidal activity towards Coryneform bacteria; type: cell-based
# Experimental: as §3, §4
# Streptococcus agalactiae = experiment: Bactericidal activity towards Streptococcus agalactiae in milk; type: cell-based; details: for % survival at 2h: S. agalactiae in milk at 37° C.
# Experimental: as §3
# However, the combination of the two agents, 0.1% monolaurin and nisin 0.2 μg/ml, is extremely potent towards S. agalactiae. […] Thus, when the application of nisin is limited by its available activity, a bactericide comprising nisin with a surfactant can be expected to be more useful.
# (§5) Incubations were in milk at 37° C.
# Listeria monocytogenes [3] = experiment: Bactericidal activity towards Listeria monocytogenes in milk; type: cell-based; details: for % Survival 2 hr: L. monocytogenes in milk at 37° C.
# Experimental: as §3
# An example of where the application of nisin is limited by its available activity is illustrated by the data in Table 15B.
# as §5
compound,measurement,setting,value
O=C(O)CN(CCN(CC(=O)O)CC(=O)O)CC(=O)O [EDTA],Percentage S. typhimurium Survival at 3 hours,"S. typhimurium; Nisin 0, EDTA 20 mM, 20 mM Tris pH 8.0, 37° C",2.5%
same,% Survival at 2 hours,"S. typhimurium; Nisin 0, EDTA 1.0 mM, BSA 1.0%, 20 mM Tris pH 8.0",63%
same,% Survival at 2 hours,"S. typhimurium; pH 5.0 (50 mM sodium acetate), Nisin 0, EDTA 2.0 mM",38.7%
same,% Survival at 2 hours,"S. typhimurium; pH 5.0, Nisin 0, EDTA 10 mM",15.2%
same,% Survival at 2 hours,"S. typhimurium; pH 5.0, Nisin 0, EDTA 50 mM",3.5%
same,% Survival at 2 hours,"S. typhimurium; pH 8.0 (20 mM Tris), Nisin 0, EDTA 2.0 mM",8.7%
same,% Survival at 2 hours,"S. typhimurium; pH 8.0, Nisin 0, EDTA 10 mM",14%
same,% Survival at 2 hours,"S. typhimurium; pH 8.0, Nisin 0, EDTA 50 mM",11.4%
same,% Survival at 2 hours,"S. typhimurium; pH 8.0, Nisin 0, EDTA 100 mM",45%
same,Percentage S. typhimurium Survival at 3 hours,"S. typhimurium; Table 3: Nisin 0, EDTA 20 mM, Tween20 0%, 20 mM Tris pH 8.0",2.5%
same,% survival at 1 min.,"E. coli; E. coli, Nisin 0, 1.0 mM EDTA, 20 mM Tris pH 7.0",100%
same,Percentage E. coli Survival at 2 hours,"E. coli; Nisin 0, EDTA 20 mM, Triton X-100 0%",14.5%
same,% Survival at 2 hours,K. pneumoniae,22%
same,% Survival at 2 hours,"[1]; Table 9, chicken muscle, pH 8.0, Nisin 0, EDTA 1.0 mM, BSA 1.0%",27%
same,% Survival at 2 hours (Unadhered cells),"[1]; Table 10, chicken muscle, Nisin 0, EDTA 10 mM, Methyl Paraben 0%, 50 mM Na acetate buffer, pH 5.0",11.8%
same,% Survival at 2 hours (Unadhered cells),"[1]; chicken muscle, pH 5.0, Nisin 0, EDTA 10 mM",6.4%
same,% Survival at 2 hours (Unadhered cells),"[1]; chicken muscle, pH 8.0, Nisin 0, EDTA 10 mM",5.2%
same,% Survival 2 hr,"Staphylococcus aureus; pH 5.0, Nisin 0, EDTA 3.0 mM",100%
same,% Survival 2 hr,"Staphylococcus aureus; pH 8.0, Nisin 0, EDTA 0.3 mM",100%
same,% Survival 2 hr,"Staphylococcus aureus; pH 8.0, Nisin 0, EDTA 1.0 mM",81%
same,% Survival 2 hr,"Staphylococcus aureus; pH 8.0, Nisin 0, EDTA 3.0 mM",100%
same,% Survival 2 hr,"Staphylococcus aureus; pH 8.0, Nisin 0, EDTA 10 mM",100%
same,% Survival 2 hr,"Staphylococcus aureus; pH 8.0, Nisin 0, EDTA 30 mM",100%
same,% Survival,Streptococcus mutans; incubation 3 min,100%
same,% Survival,Streptococcus mutans; incubation 60 min,100%
same,% Survival after 2 hr,Listeria monocytogenes [2],84%
same,% Survival 2 hr,"Coryneform bacteria; pH 8.0, Nisin 0, EDTA 0.3 mM",4.6%
same,% Survival 2 hr,"Coryneform bacteria; pH 8.0, Nisin 0, EDTA 1.0 mM",3.6%
same,% Survival 2 hr,"Coryneform bacteria; pH 8.0, Nisin 0, EDTA 3.0 mM",8%
same,% Survival 2 hr,"Coryneform bacteria; pH 8.0, Nisin 0, EDTA 10 mM",36%
"CCCCCCCCCCCC(=O)OCC(O)CO (centres unmarked) [Monolaurin, monolaurin]",% survival at 2h,"Streptococcus agalactiae; Nisin 0, Monolaurin 0.01%",100%
same,% survival at 2h,"Streptococcus agalactiae; Nisin 0, Monolaurin 0.1%",4.5%
same,bactericidal activity towards Streptococcus agalactiae,"Streptococcus agalactiae; monolaurin at concentrations up to 0.1%, in milk",little significant bactericidal activity
Triton X-100,Percentage E. coli Survival at 2 hours,"E. coli; Nisin 0, EDTA 0 mM, Triton X-100 1.0%",100%
same,bactericidal activity towards E. coli,"E. coli; Triton X-100 alone, tests #3 and #4 of Table 4",no significant bactericidal activity
monooleate,% Survival 2 hr,"Listeria monocytogenes [3]; Nisin 0, Monooleate 0.1%",67%
same,% Survival 2 hr,"Listeria monocytogenes [3]; Nisin 0, Monooleate 1.0%",63%
same,bactericidal activity towards L. monocytogenes,"Listeria monocytogenes [3]; monooleate by itself, in milk",no bactericidal activity
